The values that follow come from PubChem BioAssay AID1259407 (Chemical Carcinogenesis Research Information System (CCRIS), 2018).

Molecules are shown by their SMILES. Active and inactive are the calls of the source. No rule for the calls is given here.

For this series, the system named is CCRIS mutagenicity, Ames/micronucleus/aberration tests. Description: CCRIS mutagenicity studies.
The mark [1] stands for this setting: Test System: AMES SALMONELLA TYPHIMURIUM, Strain/Indicator: TA98, Metabolic Activation: NONE, Method: STANDARD PLATE.
Setting [2] is: Test System: AMES SALMONELLA TYPHIMURIUM, Strain/Indicator: TA100, Metabolic Activation: NONE, Method: STANDARD PLATE.
[3] abbreviates: Test System: AMES SALMONELLA TYPHIMURIUM, Strain/Indicator: TA100, Metabolic Activation: RAT, LIVER, S-9, AROCLOR 1254, Method: STANDARD PLATE.
[4] abbreviates: Test System: AMES SALMONELLA TYPHIMURIUM, Strain/Indicator: TA1535, Metabolic Activation: NONE, Method: STANDARD PLATE.
Setting [5] is: Test System: AMES SALMONELLA TYPHIMURIUM, Strain/Indicator: TA1535, Metabolic Activation: RAT, LIVER, S-9, AROCLOR 1254, Method: STANDARD PLATE.
Where [6] appears, read: Test System: AMES SALMONELLA TYPHIMURIUM, Strain/Indicator: TA1537, Metabolic Activation: NONE, Method: STANDARD PLATE.
Setting [7] is: Test System: AMES SALMONELLA TYPHIMURIUM, Strain/Indicator: TA1537, Metabolic Activation: RAT, LIVER, S-9, AROCLOR 1254, Method: STANDARD PLATE.
[8] abbreviates: Test System: AMES SALMONELLA TYPHIMURIUM, Strain/Indicator: TA1538, Metabolic Activation: NONE, Method: STANDARD PLATE.
The mark [9] stands for this setting: Test System: AMES SALMONELLA TYPHIMURIUM, Strain/Indicator: TA1538, Metabolic Activation: RAT, LIVER, S-9, AROCLOR 1254, Method: STANDARD PLATE.
[10] abbreviates: Test System: AMES SALMONELLA TYPHIMURIUM, Strain/Indicator: TA100, Metabolic Activation: NONE, Method: PREINCUBATION
Setting [11] is: Test System: AMES SALMONELLA TYPHIMURIUM, Strain/Indicator: TA104, Metabolic Activation: NONE, Method: PREINCUBATION

Regarding `CC(S)C(=O)NCC(=O)O` (stereo unspecified), the mutagenic call is “inactive; negative” under setting [1]; “inactive; negative” (Test System: AMES SALMONELLA TYPHIMURIUM, Strain/Indicator: TA98, Metabolic Activation: RAT, LIVER, S-9, AROCLOR 1254, Method: STANDARD PLATE); “inactive; negative” under setting [2]; “inactive; negative” under setting [3]; “inactive; negative” under setting [4]; “inactive; negative” under setting [5]. The mutagenic call reads like this: under setting [6], “inactive; negative”; under setting [7], “inactive; negative”; under setting [8], “inactive; negative”; under setting [9], “inactive; negative”.
`O=Cc1cccc(Cl)c1Cl`: the mutagenic call is “inactive; negative” (Test System: AMES SALMONELLA TYPHIMURIUM, Strain/Indicator: TA98, Metabolic Activation: NONE, Method: PREINCUBATION); “inactive; negative” (Test System: AMES SALMONELLA TYPHIMURIUM, Strain/Indicator: TA98, Metabolic Activation: RAT LIVER S-9, PCB, Method: PREINCUBATION); “inactive; negative” under setting [10]; “inactive; negative” (Test System: AMES SALMONELLA TYPHIMURIUM, Strain/Indicator: TA100, Metabolic Activation: RAT LIVER S-9, PCB, Method: PREINCUBATION); “inactive; negative” under setting [11]; “inactive; negative” (Test System: AMES SALMONELLA TYPHIMURIUM, Strain/Indicator: TA104, Metabolic Activation: RAT LIVER S-9, PCB, Method: PREINCUBATION). Also, the mutagenic call reads like this: (Test System: E.COLI, Strain/Indicator: WP2 UVRA, Metabolic Activation: NONE, Method: PREINCUBATION) “inactive; negative”; (Test System: E.COLI, Strain/Indicator: WP2 UVRA, Metabolic Activation: RAT LIVER S-9, PCB, Method: PREINCUBATION) “inactive; negative”.
For `Nc1ccc(-c2ccc(N)c(O)c2)cc1O`, the mutagenic call was “inactive; negative” under setting [1]; “inactive; negative” (Test System: AMES SALMONELLA TYPHIMURIUM, Strain/Indicator: TA98, Metabolic Activation: RAT, LIVER, S-9, AROCLOR, Method: STANDARD PLATE); “active; positive (weak)” under setting [2]; “active; positive (weak)” (Test System: AMES SALMONELLA TYPHIMURIUM, Strain/Indicator: TA100, Metabolic Activation: RAT, LIVER, S-9, AROCLOR, Method: STANDARD PLATE); “inactive; negative” under setting [4]; “inactive; negative” (Test System: AMES SALMONELLA TYPHIMURIUM, Strain/Indicator: TA1535, Metabolic Activation: RAT, LIVER, S-9, AROCLOR, Method: STANDARD PLATE). For the same compound, the mutagenic call by setting is: under setting [6], “inactive; negative”; (Test System: AMES SALMONELLA TYPHIMURIUM, Strain/Indicator: TA1537, Metabolic Activation: RAT, LIVER, S-9, AROCLOR, Method: STANDARD PLATE) “inactive; negative”.
In the case of `CNC(=O)C(C)SCCSP(=O)(OC)OC` (stereo unspecified), the mutagenic call was “active; positive” (Test System: E. COLI, Strain/Indicator: WP2, Metabolic Activation: NONE, Method: STANDARD PLATE) and “active; positive” (Test System: E. COLI, Strain/Indicator: WP2 UVRA, Metabolic Activation: NONE, Method: STANDARD PLATE).
In the case of `Cc1ccc(C(C)(C)C)c(O)c1C(O)c1ncc([N+](=O)[O-])n1C` (stereo unspecified), the mutagenic call is, setting by setting: under setting [1], “inactive; negative”; (Test System: AMES SALMONELLA TYPHIMURIUM, Strain/Indicator: TA 98, Metabolic Activation: RAT, LIVER, S-9, AROCLOR 1254, Method: STANDARD PLATE) “inactive; negative”; under setting [2], “inactive; negative”; under setting [3], “inactive; negative”; under setting [4], “inactive; negative”; under setting [5], “inactive; negative”. The mutagenic call by setting is: under setting [6], “inactive; negative”; under setting [7], “inactive; negative”; under setting [8], “inactive; negative”; under setting [9], “inactive; negative”.
Consider `CCC/C=C/C=O`, for which the mutagenic call is “inactive; negative” (Test System: AMES SALMONELLA TYPHIMURIUM, Strain/Indicator: TA97A, Metabolic Activation: NONE, Method: DESICCATOR); “inactive; negative” (Test System: AMES SALMONELLA TYPHIMURIUM, Strain/Indicator: TA97A, Metabolic Activation: S-9, Method: DESICCATOR); “inactive; negative” (Test System: AMES SALMONELLA TYPHIMURIUM, Strain/Indicator: TA98, Metabolic Activation: NONE, Method: DESICCATOR); “inactive; negative” (Test System: AMES SALMONELLA TYPHIMURIUM, Strain/Indicator: TA100, Metabolic Activation: NONE, Method: DESICCATOR); “inactive; negative” under setting [10]; “active; positive” (Test System: AMES SALMONELLA TYPHIMURIUM, Strain/Indicator: TA100, Metabolic Activation: NONE, Method: PREINCUBATION (THREEFOLD CELL DENSITY)). Besides, the mutagenic call by setting is: (Test System: AMES SALMONELLA TYPHIMURIUM, Strain/Indicator: TA100, Metabolic Activation: RAT, LIVER, S-9, AROCLOR 1254, Method: PREINCUBATION) “inactive; negative”; (Test System: AMES SALMONELLA TYPHIMURIUM, Strain/Indicator: TA100, Metabolic Activation: RAT, LIVER, S-9, AROCLOR 1254, Method: PREINCUBATION (THREEFOLD CELL DENSITY)) “active; positive”; (Test System: AMES SALMONELLA TYPHIMURIUM, Strain/Indicator: TA100, Metabolic Activation: S-9, Method: DESICCATOR) “inactive; negative”; (Test System: AMES SALMONELLA TYPHIMURIUM, Strain/Indicator: TA102, Metabolic Activation: S-9, Method: DESICCATOR) “inactive; negative”; (Test System: AMES SALMONELLA TYPHIMURIUM, Strain/Indicator: TA104, Metabolic Activation: NONE, Method: DESICCATOR) “inactive; negative”; under setting [11], “active; positive”. Moreover, the mutagenic call by setting is: (Test System: AMES SALMONELLA TYPHIMURIUM, Strain/Indicator: TA104, Metabolic Activation: S-9, Method: DESICCATOR) “inactive; negative”; (Test System: CHINESE HAMSTER V-79, Strain/Indicator: V-79/6-THIOGUANINE, Metabolic Activation: NONE, Method: STANDARD PLATE) “active; positive”; (Test System: CHINESE HAMSTER V-79, Strain/Indicator: V-79/OUABAIN, Metabolic Activation: NONE, Method: STANDARD PLATE) “inactive; negative”.
`CCCCOCC1CO1` (stereo unspecified): the mutagenic call runs as follows: (Test System: AMES SALMONELLA TYPHIMURIUM, Strain/Indicator: TA100, Metabolic Activation: HAMSTER, LIVER, S-9, AROCLOR 1254 (10%), Method: PREINCUBATION) “active; positive”; under setting [10], “active; positive”; (Test System: AMES SALMONELLA TYPHIMURIUM, Strain/Indicator: TA100, Metabolic Activation: NONE, Method: SPOT) “active; positive”; (Test System: AMES SALMONELLA TYPHIMURIUM, Strain/Indicator: TA100, Metabolic Activation: RAT, LIVER, S-9, AROCLOR 1254 (10%), Method: PREINCUBATION) “active; positive”; (Test System: AMES SALMONELLA TYPHIMURIUM, Strain/Indicator: TA1535, Metabolic Activation: HAMSTER, LIVER, S-9, AROCLOR 1254 (10%), Method: PREINCUBATION) “active; positive”; (Test System: AMES SALMONELLA TYPHIMURIUM, Strain/Indicator: TA1535, Metabolic Activation: NONE, Method: PREINCUBATION) “active; positive”. Moreover, the mutagenic call (Test System: AMES SALMONELLA TYPHIMURIUM, Strain/Indicator: TA1535, Metabolic Activation: RAT, LIVER, S-9, AROCLOR 1254 (10%), Method: PREINCUBATION) is “active; positive”.
`CCn1c2ccccc2c2cc(C=O)ccc21`: the mutagenic call (End Point: IN VITRO CHROMOSOMAL ABERRATIONS, Test System: CHL CELLS, Metabolic Activation: RAT, LIVER, S-9, SODIUM PHENOBARBITAL AND 5,6-BENZOFLAVONE) is “active; positive (structural changes)”.
